Measurements taken from publication doi:10.1101/2025.11.28.691146v1 (biorxiv, 2025).

Tests used:
McrA [1] = target: T1, McrA (Streptomyces lavendulae, UniProt P43485); assay: microscale thermophoresis; type: binding
T1 sequence (P43485 1-448): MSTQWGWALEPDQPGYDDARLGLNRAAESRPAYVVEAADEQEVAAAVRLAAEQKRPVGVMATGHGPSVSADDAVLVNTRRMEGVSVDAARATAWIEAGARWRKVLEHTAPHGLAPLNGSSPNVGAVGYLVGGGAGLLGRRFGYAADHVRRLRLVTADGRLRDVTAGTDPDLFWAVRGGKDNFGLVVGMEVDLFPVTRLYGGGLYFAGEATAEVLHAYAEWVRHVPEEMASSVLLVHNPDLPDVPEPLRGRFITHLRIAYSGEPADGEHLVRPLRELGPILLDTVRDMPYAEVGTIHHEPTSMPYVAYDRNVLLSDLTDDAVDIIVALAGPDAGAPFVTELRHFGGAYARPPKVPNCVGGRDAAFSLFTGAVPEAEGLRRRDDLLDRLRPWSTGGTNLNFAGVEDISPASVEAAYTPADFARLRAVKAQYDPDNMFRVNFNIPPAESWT

McrA [2] = target: T1, McrA; assay: thermal shift, label-free intrinsic fluorescence; type: binding; details: read-out: dTm at 1 mM

Kd (McrA [1]): 15.9 ± 4.5 µM
ΔTm at 1000 µM (McrA [2]): 0.5 °C
Structure (SMILES): CO[C@@]12[C@H](COC(N)=O)C3=C(C(=O)C(C)=C(N)C3=O)N1C[C@@H]1N[C@@H]12 [mitomycin C]
